Molecular target: T1, canine TRPM8 (Canis lupus familiaris, UniProt Q1A7N1)
T1 construct: expressed in transfected cells
Experiment: In vitro canine TRPM8 functional assay (Ca2+-sensitive fluorescent dye, FLIPR or FDSS, icilin challenge)
Format: cell-based
Settings: HEK293 cells stably expressing canine TRPM8; for inhibition at 0.2 µM: 0.2 μM compound, icilin challenge; for IC50: icilin at approx. 80% maximal response, eight-point dose-response, single determinations unless otherwise noted, read-out: IC50
Protocol: The functional activity of compounds of the formula (I) was determined by measuring changes in intracellular calcium concentration using a Ca^2+-sensitive fluorescent dye. The changes in fluorescent signal were monitored by a fluorescence plate reader, either a FLIPR™ (Molecular Devices) or FDSS (Hamamatsu).
At 24 hrs prior to assay, HEK293 cells stably expressing canine TRPM8 were seeded in culture medium in black wall, clear-base poly-D-lysine coated 384-well plates (BD Biosciences, NJ, USA) and grown overnight in 5% CO2 at 37° C. On assay day, growth media was removed and cells were loaded with Calcium 3 Dye (Molecular Devices) for 35 min at 37° C., under 5% CO2 and then for 25 min at room temperature and atmosphere. Subsequently, cells were tested for agonist-induced increases in intracellular Ca^2+ levels using FLIPR™ or FDSS. Cells were challenged with a compound of the Formula (I) (at varying concentrations) and intracellular Ca^2+ was measured for 5 min prior to the addition of icilin to all wells to achieve a final concentration that produces approximately an 80% maximal response. EC50 or IC50 values for compounds of the present invention were determined from eight-point dose-response studies. Curves were generated using the average of quadruplicate wells for each data point.

T1 sequence (Q1A7N1 1-1104): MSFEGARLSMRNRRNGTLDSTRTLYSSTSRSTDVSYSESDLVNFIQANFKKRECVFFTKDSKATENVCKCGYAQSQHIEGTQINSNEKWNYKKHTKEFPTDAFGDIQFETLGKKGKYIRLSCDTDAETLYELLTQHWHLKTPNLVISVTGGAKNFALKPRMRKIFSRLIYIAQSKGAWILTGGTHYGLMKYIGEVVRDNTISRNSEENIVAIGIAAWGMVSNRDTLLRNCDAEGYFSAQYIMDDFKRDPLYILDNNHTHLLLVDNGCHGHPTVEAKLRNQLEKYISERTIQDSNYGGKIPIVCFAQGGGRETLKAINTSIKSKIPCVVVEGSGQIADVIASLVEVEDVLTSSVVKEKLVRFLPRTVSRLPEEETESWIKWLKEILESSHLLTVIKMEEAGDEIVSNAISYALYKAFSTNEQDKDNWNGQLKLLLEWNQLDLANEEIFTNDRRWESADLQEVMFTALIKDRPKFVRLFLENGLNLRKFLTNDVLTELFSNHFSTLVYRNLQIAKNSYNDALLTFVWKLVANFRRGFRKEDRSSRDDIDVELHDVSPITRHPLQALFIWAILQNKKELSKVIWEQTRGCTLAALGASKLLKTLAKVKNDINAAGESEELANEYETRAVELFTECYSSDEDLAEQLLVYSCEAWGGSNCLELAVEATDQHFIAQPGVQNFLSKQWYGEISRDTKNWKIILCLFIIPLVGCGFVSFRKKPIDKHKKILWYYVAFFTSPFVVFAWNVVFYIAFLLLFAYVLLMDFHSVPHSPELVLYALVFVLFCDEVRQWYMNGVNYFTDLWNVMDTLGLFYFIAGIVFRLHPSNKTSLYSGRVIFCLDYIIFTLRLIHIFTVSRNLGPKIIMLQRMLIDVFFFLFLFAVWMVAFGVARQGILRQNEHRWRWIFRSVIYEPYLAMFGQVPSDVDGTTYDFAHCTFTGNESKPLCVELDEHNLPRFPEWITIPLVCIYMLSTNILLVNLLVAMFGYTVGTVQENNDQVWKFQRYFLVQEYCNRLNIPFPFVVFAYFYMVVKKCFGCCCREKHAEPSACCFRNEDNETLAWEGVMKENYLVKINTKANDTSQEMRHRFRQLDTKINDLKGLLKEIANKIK

| Compound | inhibition at 0.2 µM [%] | IC50 [nM] |
| --- | --- | --- |
| Cc1c(N(Cc2ccc(OC(F)(F)F)cc2)S(=O)(=O)CCN2C[C@@H](C)O[C@@H](C)C2)sc2ccccc12 [Cpd 33, N-(3-Methylbenzo[b]thiophen-2-yl)-N-(4-trifluoromethoxy-benzyl)-2-(cis-2,6-dimethylmorpholin-4-yl)ethylsulfonamide] | 100 | 24 |
| Cc1c(N(Cc2ccc(OC(F)(F)F)cc2)S(=O)(=O)CCN2CCSCC2)sc2ccccc12 [Cpd 34, N-(3-Methylbenzo[b]thiophen-2-yl)-N-(4-trifluoromethoxy-benzyl)-2-(thiomorpholin-4-yl)ethylsulfonamide] | 100 | 7 |
| Cc1c(N(Cc2ccc(OC(F)(F)F)cc2)S(=O)(=O)CCN2CCS(=O)(=O)CC2)sc2ccccc12 [Cpd 35, N-(3-Methylbenzo[b]thiophen-2-yl)-N-(4-trifluoromethoxy-benzyl)-2-(1,1-dioxothiomorpholin-4-yl)ethylsulfonamide] | 97 | 30 |
| Cc1c(N(Cc2ccc(OC(F)(F)F)cc2)S(=O)(=O)CCN2CCCC2)sc2ccccc12 [Cpd 36, N-(3-Methylbenzo[b]thiophen-2-yl)-N-(4-trifluoromethoxy-benzyl)-2-(pyrrolidin-1-yl)ethylsulfonamide] | 94 | 56 |
| Cc1c(N(Cc2ccc(OC(F)(F)F)cc2)S(=O)(=O)CCN2CCCC2C)sc2ccccc12 (stereo not drawn) [Cpd 37, N-(3-Methylbenzo[b]thiophen-2-yl)-N-(4-trifluoromethoxy-benzyl)-2-(2-methylpyrrolidin-1-yl)ethylsulfonamide] | 100 | 20 |
| Cc1c(N(Cc2ccc(OC(F)(F)F)cc2)S(=O)(=O)CCN2CCC(O)C2)sc2ccccc12 (stereo not drawn) [Cpd 38, N-(3-Methylbenzo[b]thiophen-2-yl)-N-(4-trifluoromethoxy-benzyl)-2-(3-hydroxypyrrolidin-1-yl)ethylsulfonamide] | 99 | 30 |
| Cc1c(N(Cc2ccc(OC(F)(F)F)cc2)S(=O)(=O)CCN2CCC2)sc2ccccc12 [Cpd 39, N-(3-Methylbenzo[b]thiophen-2-yl)-N-(4-trifluoromethoxy-benzyl)-2-(azetidin-1-yl)ethylsulfonamide] | 80 | 113 |
| Cc1c(N(Cc2ccc(OC(F)(F)F)cc2)S(=O)(=O)CCN2CCc3ccccc3C2)sc2ccccc12 [Cpd 40, N-(3-Methylbenzo[b]thiophen-2-yl)-N-(4-trifluoromethoxy-benzyl)-2-(1,2,3,4-tetrahydro-isoquinolin-2-yl)ethylsulfonamide] | 100 | 29 |
| CCOC(=O)C1CCN(CCS(=O)(=O)N(Cc2ccc(OC(F)(F)F)cc2)c2sc3ccccc3c2C)CC1 [Cpd 41, N-(3-Methylbenzo[b]thiophen-2-yl)-N-(4-trifluoromethoxy-benzyl)-2-(4-carboethoxypiperidin-1-yl)ethylsulfonamide] | 99 | 16 |
| Cc1c(N(Cc2ccc(OC(F)(F)F)cc2)S(=O)(=O)CCN2CCC(F)(F)CC2)sc2ccccc12 [Cpd 42, N-(3-Methylbenzo[b]thiophen-2-yl)-N-(4-trifluoromethoxy-benzyl)-2-(4,4-difluoropiperidin-1-yl)ethylsulfonamide] | 98 | 17 |
| Cc1c(N(Cc2ccc(OC(F)(F)F)cc2)S(=O)(=O)CCN2CCCC(F)(F)C2)sc2ccccc12 [Cpd 43, N-(3-Methylbenzo[b]thiophen-2-yl)-N-(4-trifluoromethoxy-benzyl)-2-(3,3-difluoropiperidin-1-yl)ethylsulfonamide] | 101 | 5 |
| Cc1c(N(Cc2ccc(OC(F)(F)F)cc2)S(=O)(=O)CCN2CCC(C(F)(F)F)CC2)sc2ccccc12 [Cpd 44, N-(3-Methylbenzo[b]thiophen-2-yl)-N-(4-trifluoromethoxy-benzyl)-2-(4-trifluoromethylpiperidin-1-yl)ethylsulfonamide] | 99 | 45 |
| Cc1c(N(Cc2ccc(OC(F)(F)F)cc2)S(=O)(=O)CCN2CCC(F)(F)C2)sc2ccccc12 [Cpd 45, N-(3-Methylbenzo[b]thiophen-2-yl)-N-(4-trifluoromethoxy-benzyl)-2-(3,3-difluoropyrrolidin-1-yl)ethylsulfonamide] | 99 | 9 |
| Cc1c(N(Cc2ccc(OC(F)(F)F)cc2)S(=O)(=O)CCN2CC(F)(F)C2)sc2ccccc12 [Cpd 46, N-(3-Methylbenzo[b]thiophen-2-yl)-N-(4-trifluoromethoxy-benzyl)-2-(3,3-ditluoroazetidin-1-yl)ethylsulfonamide] | 101 | 4 |
| CCOC(=O)CNCCS(=O)(=O)N(Cc1ccc(OC(F)(F)F)cc1)c1sc2ccccc2c1C [Cpd 47, N-(3-Methylbenzo[b]thiophen-2-yl)-N-(4-trifluoromethoxy-benzyl)-2-[(carboethoxymethyl)amino]ethylsulfonamide] | 83 | 51 |
| CNCCS(=O)(=O)N(Cc1ccc(OC(F)(F)F)cc1)c1sc2ccccc2c1C [Cpd 48, N-(3-Methylbenzo[b]thiophen-2-yl)-N-(4-trifluoromethoxy-benzyl)-2-(methylamino)ethylsulfonamide] | 24 |  |
| Cc1c(N(Cc2ccc(OC(F)(F)F)cc2)S(=O)(=O)CCN(C)C)sc2ccccc12 [Cpd 49, N-(3-Methylbenzo[b]thiophen-2-yl)-N-(4-trifluoromethoxy-benzyl)-2-(dimethylamino)ethylsulfonamide] | 65 |  |
| CCCN(CCC)CCS(=O)(=O)N(Cc1ccc(OC(F)(F)F)cc1)c1ccc2ccccc2c1 [Cpd 50, N-(Naphth-2-yl)-N-(4-trifluoromethoxy-benzyl)-2-(di-propylamino)ethylsulfonamide] | 62 |  |
| O=S(=O)(CCN1CCOCC1)N(Cc1ccc(OC(F)(F)F)cc1)c1ccc2ccccc2c1 [Cpd 51, N-(Naphth-2-yl)-N-(4-trifluoromethoxy-benzyl)-2-(morpholin-4-yl)ethylsulfonamide] | 87 | 28 |
| O=S(=O)(CCN1CCSCC1)N(Cc1ccc(OC(F)(F)F)cc1)c1ccc2ccccc2c1 [Cpd 52, N-(Naphth-2-yl)-N-(4-trifluoromethoxy-benzyl)-2-(thiomorpholin-4-yl)ethylsulfonamide] | 87 | 42 |
| O=S(=O)(CCN1CCC(c2ccccc2)CC1)N(Cc1ccc(OC(F)(F)F)cc1)c1ccc2ccccc2c1 [Cpd 53, N-(Naphth-2-yl)-N-(4-trifluoromethoxy-benzyl)-2-(4-phenylpiperidin-1-yl)ethylsulfonamide] | 58 |  |
| O=S(=O)(CCN1CCc2ccccc2C1)N(Cc1ccc(OC(F)(F)F)cc1)c1ccc2ccccc2c1 [Cpd 54, N-(Naphth-2-yl)-N-(4-trifluoromethoxy-benzyl)-2-(1,2,3,4-tetrahydroisoquinolin-2-yl)ethylsulfonamide] | 86 | 51 |
| O=S(=O)(CCN1CC(F)(F)C1)N(Cc1ccc(OC(F)(F)F)cc1)c1ccc2ccccc2c1 [Cpd 55, N-(Naphth-2-yl)-N-(4-trifluoromethoxy-benzyl)-2-(3,3-difluoroazetidin-1-yl)ethylsulfonamide] | 84 | 109 |
| CCCCN(CCCC)CCS(=O)(=O)N(Cc1ccc(OC(F)(F)F)cc1)c1ccc2ccccc2c1 [Cpd 56, N-(Naphth-2-yl)-N-(4-trifluoromethoxy-benzyl)-2-(dibutylamino)ethylsulfonamide] | 47 |  |
| CN(CCS(=O)(=O)N(Cc1ccc(OC(F)(F)F)cc1)c1ccc2ccccc2c1)Cc1ccccc1 [Cpd 57, N-(Naphth-2-yl)-N-(4-trifluoromethoxy-benzyl)-2-(benzyl-methylamino)ethylsulfonamide] | 89 | 52 |
| CC(=O)N1CCN(CCS(=O)(=O)N(Cc2ccc(OC(F)(F)F)cc2)c2ccc3ccccc3c2)CC1 [Cpd 58, N-(Naphth-2-yl)-N-(4-trifluoromethoxy-benzyl)-2-(4-acetylpiperazin-1-yl)ethylsulfonamide] | 67 |  |
| Cc1c(N(Cc2ccc(OC(F)(F)F)cc2)S(=O)(=O)CCN(C(C)C)C(C)C)sc2ccccc12 [Cpd 59, N-(3-Methylbenzo[b]thiophen-2-yl)-N-(4-trifluoromethoxy-benzyl)-2-(di-isopropylamino)ethylsulfonamide] | 100 | 8 |
| Cc1c(N(Cc2ccc(OC(F)(F)F)cc2)S(=O)(=O)CCNCC(F)(F)F)sc2ccccc12 [Cpd 60, N-(3-Methylbenzo[b]thiophen-2-yl)-N-(4-trifluoromethoxy-benzyl)-2-(2,2,2-trifluoroethylamino)ethylsulfonamide] | 100 | 14 |
| CN(CCS(=O)(=O)N(Cc1ccc(OC(F)(F)F)cc1)c1sc2ccccc2c1Br)Cc1ccccc1 [Cpd 61, N-(3-Bromobenzo[b]thiophen-2-yl)-N-(4-trifluoromethoxy-benzyl)-2-(benzyl-methylamino)ethylsulfonamide] | 102 | 28 |
| CCCCN(CCCC)CCS(=O)(=O)N(Cc1ccc(OC(F)(F)F)cc1)c1sc2ccccc2c1Br [Cpd 62, N-(3-Bromobenzo[b]thiophen-2-yl)-N-(4-trifluoromethoxy-benzyl)-2-(di-n-butylamino)ethylsulfonamide] | 96 | 38 |
